# From patent publication US11524938B2, “Aromatic sulfonamide derivatives” (Bayer Pharma Aktiengesellschaft, priority 2016, dated 2022)
# Tests used:
# rat P2X4 = molecular target: T1, rat P2X4 (Rattus norvegicus, UniProt P51577); assay: FLIPR assay, rat P2X4 1321N1 Astrocytoma cells; type: cell-based; details: agonist Mg-ATP 5 μM (EC80)
# T1 sequence (P51577 1-388): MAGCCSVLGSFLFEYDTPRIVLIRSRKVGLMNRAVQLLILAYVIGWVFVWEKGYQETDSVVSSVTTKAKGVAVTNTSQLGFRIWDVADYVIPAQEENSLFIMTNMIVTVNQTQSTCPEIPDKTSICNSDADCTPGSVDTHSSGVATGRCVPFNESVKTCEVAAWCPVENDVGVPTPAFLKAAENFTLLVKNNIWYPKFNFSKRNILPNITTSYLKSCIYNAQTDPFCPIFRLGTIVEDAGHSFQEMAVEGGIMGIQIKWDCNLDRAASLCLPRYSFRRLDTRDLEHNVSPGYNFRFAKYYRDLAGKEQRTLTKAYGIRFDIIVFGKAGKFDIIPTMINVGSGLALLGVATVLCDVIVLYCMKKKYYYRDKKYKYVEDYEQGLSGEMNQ
# Procedure: 1321N1 Astrocytoma cells stably expressing human P2X4 or rat P2X4 or mouse P2X4 were plated in Collagen I TC-treated microplate at a seeding density of 10000 cells/well and incubated overnight. P2X4 function was assessed by measuring intracellular calcium changes using the calcium-chelating dye Fluo8-AM (Molecular Devices) on a fluorescent imaging plate reader (FLEX/FLIPR station; Molecular Devices). On the day of the assay, the medium was removed and the cells were incubated for 30 min at 37 °C and 5% CO2 in 30 μL of dye buffer (Hank's balanced salt solution, 10 mM HEPES, 1.8 mM CaCl2, 1 mM MgCl2, 2 mM probenecid, 5 mM D-glucose monohydrate, 5 μM Fluo8-AM, pH=7.4). Compounds diluted in probenecid buffer (Hank's balanced salt solution, 10 mM HEPES, 1.8 mM CaCl2, 1 mM MgCl2, 2 mM probenecid, 5 mM D-glucose monohydrate, pH=7.4) were added in a volume of 10 μL and allowed to incubate for 30 min at room temperature. The final assay DMSO concentration was 0.25%. The agonist, Mg-ATP (Sigma), was added in a volume of 10 μL at a concentration representing the EC80 value. EC80 was determined to be 0.5 μM for human and mouse P2X4 and 5 μM for rat P2X4. The fluorescence was measured for an interval of 120 sec at 2 sec intervals. The excitation and emission wavelengths used to monitor fluorescence were 470-495 nm and 515-575 nm, respectively. The data was analyzed based on the increase in peak relative fluorescence units (RFU) compared to the basal fluorescence and the data was normalized to the agonist control. The compounds were tested in triplicates per plate and mean values were plotted in Excel XLFit to determine IC50 values, percentage of maximal inhibition and the Hill coefficients.
# C57BL/6 mice = assay: CFA Inflammation Model in Mice with Pain Behaviour Read Out; type: in vivo, mouse; details: oral 0.3, 1, 3 mg/kg, day 2 post-CFA, 1 h after treatment, vs vehicle
# Procedure: Wild type female C57BL/6 mice (Taconic) received intraplantar injection of complete Freund's adjuvant (CFA) (30 μL, 1 mg/mL, Sigma) into the left hind paw under isoflurane anesthesia. Animals were administered orally with example 326 (0.3, 1, and 3 mg/kg, n=10/group) on day 2 post-CFA injection. Spontaneous pain-related behavior in freely moving animals was assessed using the automated dynamic weight bearing device (DWB, Bioseb, France) one hour after compound treatment according to published and validated protocols (Robinson et al., 2012; Tetreault et al., 2011; Gruen et al. 2014). For behavioral testing, the animal was placed inside a Plexiglas chamber in which the exerted pressure on the floor was measured. The animals were allowed to move freely within the apparatus for 5 min and subsequently pain behavior is recorded for a test period of another 5 min. The relative weight distribution is calculated by determining the ratio of the weight put on naïve (contralateral) vs. that put on the intraplantar CFA treated (ipsilateral) paws.
# FIG. 3 as nonbinding explanatory example of compounds according to the invention represents the ratio of weight distribution in percent (y-axis) of mice orally treated with example 326 or vehicle 1 hour prior to weight distribution measurement. Each symbol represents the relative weight distribution for one mouse. […]
# human P2X4 = molecular target: T2, human P2X4 (Homo sapiens, UniProt Q99571); assay: Human P2X4 HEK Cell FLIPR Assay; type: cell-based; details: HEK293, HEK293 cells, agonist Bz-ATP at EC80; percentage of maximal inhibition; read-out: Human P2X4 HEK Cells (FLIPR Assay) avg Efficacy [%]
# T2 sequence (Q99571 1-388): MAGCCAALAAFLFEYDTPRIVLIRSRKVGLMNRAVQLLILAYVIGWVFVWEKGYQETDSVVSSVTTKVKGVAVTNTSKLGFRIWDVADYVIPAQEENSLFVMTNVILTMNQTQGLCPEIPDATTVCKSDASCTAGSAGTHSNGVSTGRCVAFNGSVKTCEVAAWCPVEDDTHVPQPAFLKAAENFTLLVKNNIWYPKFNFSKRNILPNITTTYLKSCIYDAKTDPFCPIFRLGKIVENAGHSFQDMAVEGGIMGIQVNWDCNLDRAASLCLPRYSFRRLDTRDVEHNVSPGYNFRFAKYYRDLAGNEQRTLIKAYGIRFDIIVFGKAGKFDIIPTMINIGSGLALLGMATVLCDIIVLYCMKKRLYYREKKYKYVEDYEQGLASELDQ
# Procedure, shortened: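 HEK293 cells stably expressing human P2X4, Fluo8-AM loaded 30 min at 37° C, then compound 30 min at room temperature (0.5% DMSO, pH 7.4 buffer with 1.8 mM CaCl2). Bz-ATP at its daily-determined EC80 added; calcium fluorescence read over 120 sec; IC50 from peak RFU normalized to agonist control, triplicates.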
Rat P2X4 1321N1 Astrocytoma Cells (FLIPR Assay) avg Efficacy [%] (rat P2X4),Emax (human P2X4) [%],Structure (SMILES),"pain behavior (relative weight distribution, dynamic weight bearing) (C57BL/6 mice)"
99,95,"NS(=O)(=O)c1cc(NC(=O)Cc2ccccc2Cl)ccc1-c1cnn(C(F)F)c1 [Example 326, 2-(2-Chlorophenyl)-N-{4-[1-(difluoromethyl)-1H-pyrazol-4-yl]-3-sulfamoylphenyl}acetamide]",significantly reduced pain behavior
87,96,"N#Cc1cnn(-c2ccc(NC(=O)Cc3ccccc3Cl)cc2S(N)(=O)=O)c1 [Example 39, 2-(2-Chlorophenyl)-N-[4-(4-cyano-1H-pyrazol-1-yl)-3-sulfamoylphenyl]acetamide]",
